Consider 8 compounds from patent US20240148821A1, “PHARMACEUTICAL USE OF CYCLIC PEPTIDE COMPOUND” (CHUGAI SEIYAKU KABUSHIKI KAISHA, priority 2021, published 2024).

For experiment [1], the target named is protein-protein interaction between Kras and SOS1 (biotin-tagged human Kras loaded with GDP, His-tagged human SOS1) (Homo sapiens (Human), UniProt P01116, G12D). Nature of the experiment: Protein-protein interaction inhibition between Kras and SOS1 (KrasG12D-SOS PPI) using AlphaScreen.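 Also: kras produced in E. coli, Ni-coupled donor beads and streptavidin acceptor beads, excitation 680 nm with emission detected at 520–620 nm via singlet oxygen transfer.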 Format: biochemical. As to conditions: AlphaScreen; biotin-tagged human Kras loaded with GDP, His-tagged human SOS1; read-out: KRAS G12D-SOS PPI IC50. For orientation: Alpha assays give light when donor and acceptor beads are brought close together.

Experiment [2] relates to Human pancreatic cancer cell line AsPC-1 (G12D mutation Kras). Nature of the experiment: AsPC-1 cell growth inhibition (AsPC-1 CGI). The format is cell-based. As to conditions: read-out: AsPC-1 cell growth inhibition, 50% growth inhibitory concentration (IC50 value); 96 hours, CellTiter-Glo, values classified in ranges.

Numbered stars: 1 amine (or outer) side, 2 acyl side, 3 side chain; on linkers, the order of the positions; unused ones are H or OH. Bridge positions count the residues as written; N and C are the ends. Square brackets hold non-standard residues; d marks the D form. Peptide text beside a SMILES is read from it. * marks the point of attachment. hPhe(3,5-F2-4-CF3) = N[C@@H](CCc1cc(F)c(C(F)(F)F)c(F)c1)C(=O)O; hPhe(3-Cl-4-CF3) = N[C@@H](CCc1ccc(C(F)(F)F)c(Cl)c1)C(=O)O; hPhe(3-F,4-CF3) = N[C@@H](CCc1ccc(C(F)(F)F)c(F)c1)C(=O)O; Phe(4-CHF2) = N[C@@H](Cc1ccc(C(F)F)cc1)C(=O)O; NEtPhe(4-Me) = CCN[C@@H](Cc1ccc(C)cc1)C(=O)O; NMePhe(4-Cl) = CN[C@@H](Cc1ccc(Cl)cc1)C(=O)O; NMePhe(4-Me) = CN[C@@H](Cc1ccc(C)cc1)C(=O)O; hPhe(4-Cl) = N[C@@H](CCc1ccc(Cl)cc1)C(=O)O; NMedβ3hAla = C[C@H](CC(=O)[*:2])N(C)[*:1]; NMeGly(cPent) = CN[C@H](C(=O)O)C1CCCC1; NMeCha = CN[C@@H](CC1CCCCC1)C(=O)O; NMeAhp(2) = CCCCC[C@H](NC)C(=O)O; NMeI = CC[C@H](C)[C@H](NC)C(=O)O; NMeD = CN[C@@H](CC(=O)O)C(=O)O; NMeL = CN[C@@H](CC(C)C)C(=O)O; NMeV = CN[C@H](C(=O)O)C(C)C; Azetidin(1-yl) = C1CN(*)C1; hSer = N[C@@H](CCO)C(=O)O; NMeA = CN[C@@H](C)C(=O)O; NMeAib = CNC(C)(C)C(=O)O; Nle = CCCC[C@H](N)C(=O)O; Piperidide = C1CCN(*)CC1; Ac5c = NC1(C(=O)O)CCCC1; Aze = O=C(O)[C@@H]1CCN1; NEtG = CCNCC(=O)O; Sar = CNCC(=O)O

Regarding `CC[C@H](C)[C@@H]1NC(=O)[C@H](C)N(C)C(=O)C[C@@H](C(=O)N2CCCCC2)N(C)C(=O)[C@H](C(C)C)N(C)C(=O)C2(CCCC2)NC(=O)[C@H](Cc2ccc(Cl)cc2)N(C)C(=O)[C@H](CCc2ccc(C(F)(F)F)c(Cl)c2)NC(=O)CN(C)C(=O)[C@H](CC2CCCCC2)N(C)C(=O)CN(C)C(=O)CN(C)C1=O` [Compound 718] ([NMeA]I[Sar][Sar][NMeCha][Sar][hPhe(3-Cl-4-CF3)][NMePhe(4-Cl)][Ac5c][NMeV][NMeD]-Piperidide; lactam N-11), the IC50 in experiment [1] is 0.039 µM; in experiment [2], > 0.5 µM.
Regarding `CCCCC[C@H]1C(=O)N[C@@H]([C@@H](C)CC)C(=O)N(C)[C@@H](C)C(=O)N2CC[C@H]2C(=O)N(C)[C@@H](CC2CCCCC2)C(=O)N(C)CC(=O)N[C@@H](CCc2ccc(C(F)(F)F)c(Cl)c2)C(=O)N2CCC[C@H]2C(=O)NC2(CCCC2)C(=O)N(C)[C@@H](C2CCCC2)C(=O)N(C)[C@H](C(=O)N2CCC2)CC(=O)N1C` [Compound 144] ([NMeAhp(2)]I[NMeA][Aze][NMeCha][Sar][hPhe(3-Cl-4-CF3)]P[Ac5c][NMeGly(cPent)][NMeD]-{Azetidin(1-yl)}; lactam N-11), the results for the IC50 in experiment [1] and in experiment [2] were 0.0011 µM and ≤ 0.02 µM, respectively.
Consider `COCC[C@@H]1NC(=O)[C@H](CC(C)C)N(C)C(=O)C[C@@H](C(=O)N2CCCCC2)N(C)C(=O)[C@H](C(C)C)N(C)C(=O)C2(CCCC2)NC(=O)[C@@H]2CCCN2C(=O)[C@H](CCc2ccc(C(F)(F)F)c(Cl)c2)NC(=O)CN(C)C(=O)[C@H](CC2CCCCC2)N(C)C(=O)[C@@H]2CCN2C(=O)[C@H](C)N(C)C1=O` [Compound 17] ([NMeL][hSer](Me)[NMeA][Aze][NMeCha][Sar][hPhe(3-Cl-4-CF3)]P[Ac5c][NMeV][NMeD]-Piperidide; lactam N-11), for which the values for the IC50 in experiment [1] and in experiment [2] were 0.03 µM and > 0.5 µM, respectively.
As to `CCCC[C@@H]1NC(=O)[C@H](CC(C)C)N(C)C(=O)C[C@@H](C(=O)N2CCCCC2)N(C)C(=O)[C@H](C(C)C)N(C)C(=O)C2(CCCC2)NC(=O)[C@@H]2CCCN2C(=O)[C@H](CCc2ccc(C(F)(F)F)c(Cl)c2)NC(=O)CN(C)C(=O)[C@H](CC2CCCCC2)N(C)C(=O)[C@@H]2CCN2C(=O)[C@H](C)N(C)C1=O` [Compound 1823] ([NMeL][Nle][NMeA][Aze][NMeCha][Sar][hPhe(3-Cl-4-CF3)]P[Ac5c][NMeV][NMeD]-Piperidide; lactam N-11), the IC50 was 0.059 µM in experiment [1] and > 0.5 µM in experiment [2].
Consider `CC[C@H](C)[C@@H]1NC(=O)[C@H](CC(C)C)N(C)C(=O)C[C@@H](C(=O)N2CCC2)N(C)C(=O)[C@H](C2CCCC2)N(C)C(=O)C2(CCCC2)NC(=O)[C@@H]2CCCN2C(=O)[C@H](CCc2cc(F)c(C(F)(F)F)c(F)c2)NC(=O)CN(C)C(=O)[C@H](Cc2ccc(C)cc2)N(CC)C(=O)[C@@H]2CCN2C(=O)[C@H](C)N(C)C1=O` [Compound 55] ([NMeL]I[NMeA][Aze][NEtPhe(4-Me)][Sar][hPhe(3,5-F2-4-CF3)]P[Ac5c][NMeGly(cPent)][NMeD]-{Azetidin(1-yl)}; lactam N-11), for which the figures for the IC50 in experiment [1] and in experiment [2] were 0.00077 µM and ≤ 0.02 µM, respectively.
Regarding `CC[C@H](C)[C@@H]1NC(=O)[C@H](CC(C)C)N(C)C(=O)C[C@@H](C(=O)N(C)C)N(C)C(=O)[C@H]([C@@H](C)CC)N(C)C(=O)C2(CCCC2)NC(=O)[C@@H]2CCCN2C(=O)[C@H](CCc2ccc(C(F)(F)F)c(Cl)c2)NC(=O)CN(CC)C(=O)[C@H](Cc2ccc(C)cc2)N(C)C(=O)[C@@H]2CCN2C(=O)[C@H](C)N(C)C1=O` [Compound 1120] ([NMeL]I[NMeA][Aze][NMePhe(4-Me)][NEtG][hPhe(3-Cl-4-CF3)]P[Ac5c][NMeI][NMeD]-NMe2; lactam N-11), the IC50 was 0.0025 µM in experiment [1] and ≤ 0.02 µM in experiment [2].
For the compound `CC[C@H](C)[C@@H]1NC(=O)[C@H](CC(C)C)N(C)C(=O)C[C@@H](C)N(C)C(=O)[C@H](CC(C)C)NC(=O)C(C)(C)N(C)C(=O)[C@H](Cc2ccc(C(F)F)cc2)NC(=O)[C@H](CCc2ccc(C(F)(F)F)c(F)c2)NC(=O)CN(C)C(=O)[C@H](CC2CCCCC2)N(C)C(=O)CN(C)C(=O)CN(C)C1=O` [Compound 858] (cyclo(I[Sar][Sar][NMeCha][Sar][hPhe(3-F,4-CF3)][Phe(4-CHF2)][NMeAib]L[NMedβ3hAla][NMeL])), the IC50 in experiment [1] is 0.33 µM; in experiment [2], > 0.5 µM.
For the compound `CC[C@H](C)[C@@H]1NC(=O)[C@H](C)N(C)C(=O)C[C@@H](C(=O)N2CCCCC2)N(C)C(=O)[C@H](C(C)C)N(C)C(=O)C2(CCCC2)NC(=O)[C@@H]2CCCN2C(=O)[C@H](CCc2ccc(Cl)cc2)NC(=O)CN(C)C(=O)[C@H](CC2CCCCC2)N(C)C(=O)[C@@H]2CCN2C(=O)[C@H](C)N(C)C1=O` [Compound 903] ([NMeA]I[NMeA][Aze][NMeCha][Sar][hPhe(4-Cl)]P[Ac5c][NMeV][NMeD]-Piperidide; lactam N-11), the IC50 in experiment [1] is 0.024 µM; in experiment [2], > 0.5 µM.
